From patent publication US20210122763A1, “OGA INHIBITOR COMPOUNDS” (Janssen Pharmaceutica NV, priority 2018, published 2021)

Target: T1, recombinant human Meningioma Expressed Antigen 5 (MGEA5), also referred to as O-GlcNAcase (OGA) (Homo sapiens, UniProt O60502)
T1 construct: Full length OGA enzyme was purchased at OriGene (cat #TP322411); purchased OriGene TP322411
T1 sequence (O60502 1-916): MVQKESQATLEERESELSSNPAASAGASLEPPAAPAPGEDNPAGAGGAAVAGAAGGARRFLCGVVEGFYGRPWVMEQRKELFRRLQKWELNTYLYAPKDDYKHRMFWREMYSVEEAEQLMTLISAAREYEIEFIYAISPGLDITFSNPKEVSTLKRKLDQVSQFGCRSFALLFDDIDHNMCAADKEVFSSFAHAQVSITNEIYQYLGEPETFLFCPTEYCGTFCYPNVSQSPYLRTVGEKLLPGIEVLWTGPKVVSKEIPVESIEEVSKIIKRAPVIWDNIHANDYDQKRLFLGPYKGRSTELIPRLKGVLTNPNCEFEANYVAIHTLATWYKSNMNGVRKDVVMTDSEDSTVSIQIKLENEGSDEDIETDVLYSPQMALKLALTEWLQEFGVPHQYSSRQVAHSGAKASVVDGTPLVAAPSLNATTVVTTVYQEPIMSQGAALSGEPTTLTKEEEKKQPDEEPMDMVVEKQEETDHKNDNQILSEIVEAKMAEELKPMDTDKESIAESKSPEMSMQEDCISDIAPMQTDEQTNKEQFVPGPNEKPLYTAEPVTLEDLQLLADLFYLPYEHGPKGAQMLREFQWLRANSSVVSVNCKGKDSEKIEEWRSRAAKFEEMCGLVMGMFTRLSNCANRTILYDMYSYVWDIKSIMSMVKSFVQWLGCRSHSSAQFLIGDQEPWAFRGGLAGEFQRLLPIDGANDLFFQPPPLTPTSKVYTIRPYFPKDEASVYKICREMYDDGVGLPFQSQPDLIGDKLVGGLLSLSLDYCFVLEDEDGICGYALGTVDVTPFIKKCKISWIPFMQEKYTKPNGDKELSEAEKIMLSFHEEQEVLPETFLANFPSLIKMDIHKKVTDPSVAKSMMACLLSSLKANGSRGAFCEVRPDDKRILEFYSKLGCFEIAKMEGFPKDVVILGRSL
Test: OGA biochemical assay (inhibition of FM-GlcNAc hydrolysis, fluorescence)
Conditions: for Emax: read-out: Enzymatic Emax (%); for IC50: read-out: Enzymatic hOGA, pIC50 (converted)
Summary of the method: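 Full-length OGA at 2 nM was pre-incubated 60 min at room temperature with compound, then FM-GlcNAc at 100 uM final was added in citrate/phosphate buffer pH 7.2 with 0.005% Tween-20. After 6 h at room temperature, carbonate pH 11.0 stopped the reaction. Fluorescence read at 485/538 nm; IC50 and Hill coefficient from curve fit against no-inhibitor and saturating-standard controls.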

Structure (SMILES) | Emax [%] | IC50 [nM]
Cc1cc(OC2CCN([C@H](C)c3nc4c(cc3F)CCO4)CC2)cc(C)n1 (single isomer, unassigned) [Compound 144] | 97 | 3.16
Cc1cc(OC2CCN([C@@H](C)c3nc4nc(C)sc4cc3F)CC2)cc(C)n1 (single isomer, unassigned) [Compound 83] | 101 | 5.01
Cc1cc(OC2CCN([C@H](C)c3nc4c(cc3F)OCCO4)CC2)cc(C)n1 (single isomer, unassigned) [Compound 148] | 98 | 6.31
Cc1ncc(OC2CCN(C(C)c3nc4c(cc3F)CCO4)CC2)cn1 (centres unmarked) [Compound 95] | 96 | 5.01
